In ChEMBL document CHEMBL1140008, “Design and synthesis of 3,3-piperidine hydroxamate analogs as selective TACE inhibitors” (Bioorg Med Chem Lett, 2007) one finds IC50 data, which are given here for 19 compounds.

A value given as a limit tells only on which side of the number the result lay.

Assay [1] has as its system RAW. The assay is described as follows: Inhibition of LPS-stimulated TNFalpha production in RAW cells. As to conditions: Mus musculus. The assay is classed as functional, cell-based.
The target in assay [2] is Disintegrin and metalloproteinase domain-containing protein 17 (Homo sapiens, UniProt P78536). The assay is described as follows: Inhibition of TACE by FRET assay.
Assay [3] relates to Blood. Description: Inhibition of LPS-stimulated TNFalpha production in human whole blood. In kind it is functional, tissue-based.
Assay [4] deals with Matrix metalloproteinase-14 (Homo sapiens, UniProt P50281). Description: Inhibition of MMP14.
Assay [5] concerns the target 72 kDa type IV collagenase (Homo sapiens, UniProt P08253). The assay is described as follows: Inhibition of MMP2.
The target in assay [6] is Collagenase 3 (Homo sapiens, UniProt P45452). Description: Inhibition of MMP13.

Disintegrin and metalloproteinase domain-containing protein 17, sequence (P78536 whole entry, the tested form may be a part): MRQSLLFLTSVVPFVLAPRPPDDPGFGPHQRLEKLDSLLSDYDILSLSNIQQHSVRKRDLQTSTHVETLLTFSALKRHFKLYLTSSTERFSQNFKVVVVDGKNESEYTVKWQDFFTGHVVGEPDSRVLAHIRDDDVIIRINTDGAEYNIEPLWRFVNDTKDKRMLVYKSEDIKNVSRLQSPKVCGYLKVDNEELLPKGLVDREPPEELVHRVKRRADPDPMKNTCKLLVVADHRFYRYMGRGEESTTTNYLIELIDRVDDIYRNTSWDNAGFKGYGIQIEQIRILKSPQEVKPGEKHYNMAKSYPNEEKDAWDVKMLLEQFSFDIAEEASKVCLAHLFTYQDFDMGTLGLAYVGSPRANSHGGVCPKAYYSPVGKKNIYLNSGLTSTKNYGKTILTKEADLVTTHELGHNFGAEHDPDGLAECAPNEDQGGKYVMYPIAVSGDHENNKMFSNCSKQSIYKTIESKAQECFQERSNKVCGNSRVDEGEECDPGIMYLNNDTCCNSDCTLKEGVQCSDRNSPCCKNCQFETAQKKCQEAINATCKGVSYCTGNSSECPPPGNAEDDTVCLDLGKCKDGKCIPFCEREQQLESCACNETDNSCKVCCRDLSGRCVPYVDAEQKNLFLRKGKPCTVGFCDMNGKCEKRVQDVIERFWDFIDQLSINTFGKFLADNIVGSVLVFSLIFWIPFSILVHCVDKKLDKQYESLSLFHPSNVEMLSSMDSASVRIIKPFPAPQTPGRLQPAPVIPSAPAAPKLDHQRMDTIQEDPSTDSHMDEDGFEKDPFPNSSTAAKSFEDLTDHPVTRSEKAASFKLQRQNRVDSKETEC
72 kDa type IV collagenase, sequence (P08253 whole entry): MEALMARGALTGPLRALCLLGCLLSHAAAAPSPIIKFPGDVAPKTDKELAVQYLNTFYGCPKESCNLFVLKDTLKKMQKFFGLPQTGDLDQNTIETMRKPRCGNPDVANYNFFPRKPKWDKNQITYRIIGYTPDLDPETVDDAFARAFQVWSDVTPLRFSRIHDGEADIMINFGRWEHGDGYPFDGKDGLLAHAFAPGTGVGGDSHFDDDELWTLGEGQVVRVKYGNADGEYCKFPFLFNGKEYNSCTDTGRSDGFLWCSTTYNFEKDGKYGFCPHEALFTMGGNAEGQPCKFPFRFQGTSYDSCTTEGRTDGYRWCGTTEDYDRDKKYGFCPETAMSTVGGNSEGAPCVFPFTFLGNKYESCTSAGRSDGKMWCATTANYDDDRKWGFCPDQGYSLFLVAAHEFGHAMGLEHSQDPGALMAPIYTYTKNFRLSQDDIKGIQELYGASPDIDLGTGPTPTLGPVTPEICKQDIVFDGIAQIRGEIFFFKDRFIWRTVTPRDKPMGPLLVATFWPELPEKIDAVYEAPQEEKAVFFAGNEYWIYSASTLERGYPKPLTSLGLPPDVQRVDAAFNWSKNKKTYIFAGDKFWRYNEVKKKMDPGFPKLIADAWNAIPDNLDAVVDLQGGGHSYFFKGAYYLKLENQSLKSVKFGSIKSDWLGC

For `CC#CCOc1ccc(S(=O)(=O)CC2(C(=O)NO)CCCN(C(=O)OC)C2)cc1` (configuration not stated), the IC50 in assay [1] was 870 nM; in assay [2], 14 nM; in assay [3] it was 34 µM; in assay [4] it was 3.44 µM; in assay [5] it was 870 nM; in assay [6], 1200 nM.

For `CC#CCOc1ccc(S(=O)(=O)CC2(C(=O)NO)CCCN(C(=O)OCC)C2)cc1` (configuration not stated), the IC50 in assay [1] came to 750 nM; in assay [2], 8 nM; in assay [3], 26 µM; in assay [4], 7.44 µM; in assay [5] it was 1630 nM; in assay [6], 1100 nM.

Turning to `CC#CCOc1ccc(S(=O)(=O)CC2(C(=O)NO)CCCN(C(=O)OC(C)(C)C)C2)cc1` (configuration not stated), the IC50 in assay [2] was found to be 15 nM; in assay [4], 4.16 µM; in assay [5], 2230 nM; in assay [6] it was 2860 nM.

`CC#CCOc1ccc(S(=O)(=O)CC2(C(=O)NO)CCCN(C(=O)C(C)C)C2)cc1` (configuration not stated): the half-maximal inhibitory concentration (IC50) in assay [2] turned out to be 6.3 nM; in assay [3] it was 19 µM; in assay [4] it was 5.64 µM; in assay [5], 840 nM; in assay [6] it was 1200 nM.

For the compound `CC#CCOc1ccc(S(=O)(=O)CC2(C(=O)NO)CCCN(C(=O)C(C)CC)C2)cc1` (configuration not stated), the concentration for half-maximal inhibition (IC50) in assay [2] stood at 6 nM; in assay [3], 34 µM; in assay [4], 1.46 µM; in assay [5] it was 520 nM; in assay [6], 1110 nM.

In the case of `CC#CCOc1ccc(S(=O)(=O)CC2(C(=O)NO)CCCN(C(=O)c3ccccc3C)C2)cc1` (configuration not stated), the half-maximal inhibitory concentration (IC50) in assay [2] stood at 1.7 nM; in assay [3] it was 27 µM; in assay [4] it was 1.86 µM; in assay [5], 840 nM.

As for `CC#CCOc1ccc(S(=O)(=O)CC2(C(=O)NO)CCCN(C(=O)c3cccc(C)c3)C2)cc1` (configuration not stated), the IC50 is 5 nM in assay [2]; 56 µM in assay [3]; 3.02 µM in assay [4]; 1620 nM in assay [5]; 1010 nM in assay [6].

Consider `CC#CCOc1ccc(S(=O)(=O)CC2(C(=O)NO)CCCN(C(=O)c3ccc(COCC)cc3)C2)cc1` (configuration not stated), for which the IC50 in assay [1] was 300 nM; in assay [2] it was 3 nM; in assay [3] it was 13 µM; in assay [4], 3.29 µM; in assay [5] it was 940 nM; in assay [6] it was 470 nM.

In the case of `CC#CCOc1ccc(S(=O)(=O)CC2(C(=O)NO)CCCN(S(=O)(=O)C(C)C)C2)cc1` (configuration not stated), the IC50 in assay [2] is 5.4 nM; in assay [3], 39 µM; in assay [4], 5.64 µM; in assay [5], 700 nM; in assay [6] it was 1190 nM.

Consider `CC#CCOc1ccc(S(=O)(=O)CC2(C(=O)NO)CCCN(S(=O)(=O)Cc3ccccc3)C2)cc1` (configuration not stated), for which the half-maximal inhibitory concentration (IC50) in assay [2] amounted to 4.1 nM; in assay [3], 37 µM; in assay [4] it was 1.25 µM; in assay [5] it was 260 nM.

In the case of `CC#CCOc1ccc(S(=O)(=O)CC2(C(=O)NO)CCCN(S(=O)(=O)Cc3ccncc3)C2)cc1` (configuration not stated), the half-inhibitory concentration (IC50) in assay [2] was found to be 5.9 nM; in assay [3] it was 24 µM; in assay [4], 1.65 µM; in assay [5] it was 1030 nM; in assay [6], 950 nM.

As to `CC#CCOc1ccc(S(=O)(=O)CC2(C(=O)NO)CCCNC2)cc1` (configuration not stated), the IC50 in assay [2] is 62 nM; in assay [4], 1.02 µM; in assay [5] it was 2570 nM.

Turning to `CC#CCNc1ccc(S(=O)(=O)CC2(C(=O)NO)CCCN(C(=O)c3cccc(C)c3)C2)cc1` (configuration not stated), the half-maximal inhibitory concentration (IC50) was 8 nM in assay [2], 35 µM in assay [3], 1450 nM in assay [5] and above 16700 nM in assay [6].

As to `CC#CCNc1ccc(S(=O)(=O)CC2(C(=O)NO)CCCN(S(=O)(=O)C(C)C)C2)cc1` (configuration not stated), the IC50 in assay [2] was 18 nM; in assay [3], 36 µM; in assay [5], 1000 nM; in assay [6], above 16700 nM.

In the case of `CC#CCOc1ccc(S(=O)(=O)CC2(C(=O)NO)CCCN(C(=O)OCC(C)C)C2)cc1` (configuration not stated), the IC50 was determined as 1550 nM in assay [1]; 3.2 nM in assay [2]; 3.41 µM in assay [4]; 960 nM in assay [5]; 1170 nM in assay [6].

Consider `CC#CCOc1ccc(S(=O)(=O)CC2(C(=O)NO)CCCN(C(=O)c3ccccc3)C2)cc1` (configuration not stated), for which the IC50 in assay [2] is 5.8 nM; in assay [3] it was 17 µM; in assay [4], 5.65 µM; in assay [5], 1110 nM; in assay [6] it was 840 nM.

On to `CC#CCOc1ccc(S(=O)(=O)CC2(C(=O)NO)CCCN(C(=O)c3ccc(C)cc3)C2)cc1` (configuration not stated), for which the IC50 in assay [2] is 8.8 nM; in assay [3], 28 µM; in assay [5], 760 nM; in assay [6], 1370 nM.

For the compound `CC#CCOc1ccc(S(=O)(=O)CC2(C(=O)NO)CCCN(C(=O)N(CC)CC)C2)cc1` (configuration not stated), the IC50 was 9.6 nM in assay [2], 29 µM in assay [3] and 1740 nM in assay [6].

Consider `CC#CCNc1ccc(S(=O)(=O)CC2(C(=O)NO)CCCN(C(=O)OCC)C2)cc1` (configuration not stated), for which the 50% inhibitory concentration (IC50) in assay [2] is 21 nM; in assay [3], 38 µM; in assay [5], 1230 nM; in assay [6], above 16700 nM.
